Where “and” joins values, the source holds several entries; their conditions need not be identical. Identical values can stand only once. Like-named read-outs stand apart in the source and are kept apart here. Values belong to the compound of their own block, whether it stands above or below them.
Experiments:
[1] = system: propranolol metabolism; experiment: In vitro inhibition of propranolol metabolism by quinine; type: in vitro ADME; settings: quinine 1-10 micromolar, in vitro (data not shown)
[2] = target: PAK1 (Homo sapiens, UniProt Q13153); experiment: PAK1 inhibition constant; type: biochemical; settings: read-out: PAK1 Ki
Chain of PAK1 (Q13153 whole entry, the tested form may be a part): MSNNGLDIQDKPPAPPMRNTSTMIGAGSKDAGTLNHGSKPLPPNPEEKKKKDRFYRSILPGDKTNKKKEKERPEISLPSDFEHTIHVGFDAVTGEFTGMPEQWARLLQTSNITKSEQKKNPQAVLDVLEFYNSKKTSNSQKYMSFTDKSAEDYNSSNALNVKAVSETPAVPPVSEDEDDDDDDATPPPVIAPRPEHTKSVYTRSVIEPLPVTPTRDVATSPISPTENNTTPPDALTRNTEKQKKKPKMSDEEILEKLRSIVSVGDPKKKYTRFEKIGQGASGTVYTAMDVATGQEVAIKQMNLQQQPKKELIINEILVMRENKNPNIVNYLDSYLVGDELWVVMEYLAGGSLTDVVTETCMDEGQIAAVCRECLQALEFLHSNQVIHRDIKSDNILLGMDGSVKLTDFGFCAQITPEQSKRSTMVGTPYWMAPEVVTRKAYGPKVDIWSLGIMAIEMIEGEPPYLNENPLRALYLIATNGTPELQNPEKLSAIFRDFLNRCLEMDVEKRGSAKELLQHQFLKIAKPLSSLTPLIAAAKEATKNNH

[3] = Intravenous bolus and infusion pharmacokinetics in Sprague-Dawley rats; type: in vivo, rat; settings: for Clearance relative to hepatic blood flow: dosed in rat; for In vivo rat CLp IV bolus: plasma; for Plasma CL: n = 3
[4] = system: cytochrome P450 (rat S9); experiment: NADPH-dependent; type: in vitro ADME; settings: S9 2 mg/mL, NADPH 1 mM
[5] = system: MDCK parent cells; experiment: MDCK permeability and efflux; type: in vitro ADME; settings: for MDCK A→B Papp: apical to basolateral
[6] = Log D at pH 7.4; type: physicochemical; settings: octanol/buffer
[7] = Intrinsic clearance in human hepatocytes; type: in vitro ADME; settings: human hepatocytes 0.5 million cells/mL, 0.5 μM, scaled
[8] = Kinetic solubility; type: physicochemical
[9] = Intrinsic clearance in rat hepatocytes; type: in vitro ADME; settings: rat hepatocytes 0.5 million cells/mL, 0.5 μM, scaled
[10] = system: N-acetyltransferase (rat S9); experiment: Acetyl-CoA-dependent N-acetylation in rat liver S9; type: in vitro ADME; settings: S9 2 mg/mL, acetyl-CoA 1 mM
[11] = Intrinsic clearance in human liver microsomes; type: in vitro ADME; settings: human liver microsomes 0.5 mg/mL, 0.5 μM, scaled
[12] = Intrinsic clearance in rat liver microsomes; type: in vitro ADME; settings: rat liver microsomes 0.5 mg/mL, 0.5 μM, scaled
[13] = Unbound fraction in rat; type: in vitro ADME
[14] = system: mouse hepatocytes; experiment: Metabolism of GNE1 in mouse hepatocytes with or without ABT; type: in vitro ADME; settings: ABT 500 μM, GNE1 5 μM
[15] = read-out: Plasma concentration at Cmax; cited from earlier work
[16] = Unbound fraction in liver perfusate and liver homogenate; type: in vitro ADME, rat
[17] = Single-pass isolated perfused rat liver; type: in vitro ADME; settings: for Propranolol (cassette) ER: propranolol 2 to 4 μM
[18] = not given; remark: listed apart in the source
[19] = system: Oct1/2; experiment: Blood clearance in Oct1/2 double KO and wild-type mice with or without ABT; type: in vivo, mouse; settings: for Reduction of blood clearance by ABT: ABT 100 mg/kg oral 2 h before GNE1 2 mg/kg IV
[20] = system: cryo-preserved rat hepatocytes; settings: cited from earlier work
[21] = Stability of GNE4 in rat intestinal S9 and feces; type: in vitro ADME; settings: rat intestinal S9 and feces (data not shown)

Compound: C=C[C@H]1C[N@@]2CC[C@H]1C[C@H]2[C@H](O)c1ccnc2ccc(OC)cc12 [quinine]
Effect on propranolol metabolism [1]: inhibit propranolol metabolism

Ki [2]: 22 nM
Clearance relative to hepatic blood flow [3]: greater than hepatic blood flow
In vivo rat CLp IV bolus ([3]; rat, IV bolus): >>hepatic blood flow
CLint of P450 metabolism in rat S9 [4]: <10 mL/min/kg
MDCK efflux ratio [5]: 13.5
MDCK A→B Papp [5]: 0.4 ×10⁻⁶ cm/s
Log DpH=7.4 [6]: 0.48
HH CLint [7]: 7.6 mL/min/kg
Kinetic solubility [8]: 72 µM
RH CLint [9]: 91 mL/min/kg
CLint of N-acetylation in rat S9 [10]: 337 mL/min/kg
HLM CLint [11]: 8.6 mL/min/kg
RLM CLint [12]: 62 mL/min/kg
fu rat [13]: 0.22
Compound: NC1CCN(c2nc(Nc3cc(C4CC4)[nH]n3)c3sccc3n2)CC1 [GNE2, 2-(4-aminopiperidin-1-yl)-N-(5-cyclopropyl-1H-pyrazol-3-yl) thieno [[3],2-d]pyrimidin-4-amine]

Compound: Nn1nnc2ccccc21 [ABT, 1-aminobenzotriazole]
Inhibition of oxidative and N-acetylation metabolism of GNE1 [14]: completely inhibited
Cmax [15]: 752 µM

Ki [2]: 26 nM
Fecal recovery of unchanged GNE1 over 24 hours (BDC rats): 24%
Dose recovery of unchanged GNE1 in bile (BDC rats, 0-4h): 7.8 ± 1.2 % of Total Dosed
Dose recovery of unchanged GNE1 in urine (BDC rats, 0-4h): BQL
Dose recovery of unchanged GNE1 in feces (BDC rats, 0-8h): 5.8 ± 4.2 % of Total Dosed
Dose recovery of unchanged GNE1 in bile (BDC rats, 4-8h): 2.5 ± 0.9 % of Total Dosed
Dose recovery of unchanged GNE1 in bile (BDC rats, 8-24h): 3.9 ± 1.8 % of Total Dosed
Dose recovery of unchanged GNE1 in urine (BDC rats, 8-24h): 2.8 ± 1.0 % of Total Dosed
Dose recovery of unchanged GNE1 in bile (BDC rats, 24-48h): <1 % of Total Dosed
Dose recovery of unchanged GNE1 in feces (BDC rats, 24-48h): 2.2 ± 1.4 % of Total Dosed
Dose recovery of unchanged GNE1 in urine (BDC rats, 24-48h): <1 % of Total Dosed
Total Recovery (24–72 h) of unchanged GNE1 (BDC rats, 24–72 h): 2.2 % of Total Dosed
Dose recovery of unchanged GNE1 in bile (BDC rats, 48-72h): 0 % of Total Dosed
Dose recovery of unchanged GNE1 in feces (BDC rats, 48-72h): <1 % of Total Dosed
Dose recovery of unchanged GNE1 in urine (BDC rats, 48-72h): <1 % of Total Dosed
Overall biliary excretion of unchanged GNE1 (BDC rats, 24 h): ~14%
Recovery of GNE1 in feces during 0–24 hours (BDC rats, 72 h collection experiment): 31 % of Total Dosed
Percentage of GNE1 detected in urine (BDC rats, compared with intact rats): 30%
Total Recovery of unchanged GNE1 (BDC rats, up to 24 hours): 71 % of Total Dosed
Biliary clearance as share of total clearance (cannulated rats, IV): approximately 14%
Renal clearance as share of total clearance (rats, IV): ~16%
Clearance relative to hepatic blood flow [3]: greater than hepatic blood flow
CLB (biliary clearance) ([3]; rat, IV bolus, 2 mg/kg): 21.5 ± 6.20 mL/min/kg
CLR (renal clearance) ([3]; rat, IV bolus, 2 mg/kg): 49.7 ± 3.84 mL/min/kg
Terminal half-life ([3]; rat, IV bolus, 2 mg/kg): 1.32 ± 0.43 h
Vss ([3]; rat, IV bolus, 2 mg/kg): 20.5 ± 1.92 L/kg
Plasma CL ([3]; rat, IV bolus, 2 mg/kg): 216 ± 53.0 mL/min/kg
In vivo rat CLp IV bolus ([3]; rat, IV bolus): 216 mL/min/kg
Terminal half-life ([3]; rat, IV infusion 0.57 mg/kg/h): 0.74 ± 0.10 h
Vss ([3]; rat, IV infusion 0.57 mg/kg/h): 4.2 ± 1.2 L/kg and 4.21 ± 1.16 L/kg
Plasma CL ([3]; rat, IV infusion 0.57 mg/kg/h to 90% of steady state): 121 ± 4.35 mL/min/kg
fu perfusate ([16]; isolated perfused liver perfusate (4% BSA, 20% bovine red blood cells)): 0.3
fu in liver (corrected) ([16]; liver homogenate, corrected for dilution): 0.3/0.01
MDCK efflux ratio [5]: 43
MDCK A→B Papp [5]: 0.1 ×10⁻⁶ cm/s
Log DpH=7.4 [6]: 0.83
HH CLint [7]: 2.4 mL/min/kg
GNE1 hepatic ER ([17]; GNE1 Cin = 0.3 μM with Quinine (10 μM)): 0.36
GNE1 hepatic ER ([17]; GNE1 Cin = 0.3 μM, flow 12 mL/min): 0.78
GNE1 hepatic ER ([17]; GNE1 Cin = 8 μM): 0.41
Perfusate Cout ([17]; end of perfusion, Cin = 0.3 μM): 0.07 µM
Total liver concentration of GNE1 ([17]; end of perfusion, Cin = 0.3 μM): 8 µM
Biliary clearance, fold lower than calculated perfusate clearance ([17]; isolated perfused rat liver, Cin 0.3 μM): about 26 fold
Biliary clearance ([17]; isolated perfused rat liver, GNE1 Cin = 0.3 μM): 0.7 mL/min/kg
Biliary clearance ([17]; isolated perfused rat liver, GNE1 Cin = 0.3 μM with Quinine (10 μM)): 0.046 mL/min/kg
Biliary clearance ([17]; isolated perfused rat liver, GNE1 Cin = 8 μM): 0.23 mL/min/kg
kpu,u (intracellular to extracellular ratio of unbound concentrations) ([17]; liver/perfusate, Cin = 0.3 μM): 3.8
Biliary clearance as share of total perfusate clearance ([17]; multiple IPL experiments): less than 5%
Kinetic solubility [8]: 157 µM
RH CLint [9]: 34 mL/min/kg
Total amount of GNE1 recovered in urine over 24 hours ([18]; intact rats (no bile collection), % of dose): 16% and 15.6% and 15%
Dose recovery of unchanged GNE1 in urine ([18]; intact rats, 0-8 h (one value across 0-4h and 4-8h)): 8.5 ± 2.3 % of Total Dosed
Dose recovery of unchanged GNE1 in urine ([18]; intact rats, 8-24h): 7.1 ± 2.0 % of Total Dosed
Dose recovery of unchanged GNE1 in urine ([18]; intact rats, 24-48h): <1 % of Total Dosed
Dose recovery of unchanged GNE1 in feces ([18]; intact rats, 24-48h (72 h experiment)): 8.4 ± 2.9 % of Total Dosed
Total Recovery (24–72 h) of unchanged GNE1 ([18]; intact rats, 24–72 h): 8.4 % of Total Dosed
Dose recovery of unchanged GNE1 in feces ([18]; intact rats, 48-72h): <1 % of Total Dosed
Dose recovery of unchanged GNE1 in urine ([18]; intact rats, 48-72h): <1 % of Total Dosed
Recovery of GNE1 in feces during 0–24 hours ([18]; intact rats, 72 h collection experiment): up to 91 % of Total Dosed
Total Recovery of unchanged GNE1 ([18]; intact rats, up to 24 hours): 93 % of Total Dosed
N-acetylation as share of total dose ([18]; rat, IV): about 10%
Reduction of blood clearance by ABT ([19]; Oct1/2 double KO mice): 28.2%
Average change of blood clearance between wild-type and transporter KO mice ([19]; regardless of ABT treatment): 56%
Average overall decrease of blood clearance by ABT ([19]; wild-type and double KO mice averaged): 24%
Reduction of blood clearance by ABT ([19]; wild-type mice): 20.5%
HLM CLint [11]: 4.5 mL/min/kg
RLM CLint [12]: 6.1 mL/min/kg
fu rat [13]: 0.16
Compound: N[C@H]1CC[C@H](CNc2ncc(Cl)c(Nc3cc(C4CC4)[nH]n3)n2)CC1 [GNE1, N^2-(((1r,4r)-4-aminocyclohexyl)methyl)-5-chloro-N^4-(5-cyclopropyl-1H-pyrazol-3-yl)pyrimidine-2,4-diamine]
Dose recovery of unchanged GNE1 in urine (BDC rats, 4-8h): 30 % of Total Dosed and 30 ± 1.1 % of Total Dosed
Dose recovery of unchanged GNE1 in feces (BDC rats, 8-24h): 18 % of Total Dosed and 18 ± 4.7 % of Total Dosed
CLR (renal clearance) ([3]; rat, IV infusion 0.57 mg/kg/h): 20 ± 1.2 mL/min/kg and 20.2 ± 1.22 mL/min/kg
Uptake rate (CLint, influx) [20]: 11.1 mL/min/g of liver

GNE4 amount relative to parent (fold less) in urine, feces and bile combined (BDC rats, over 72 hours): ~8 fold
Stability to hydrolysis [21]: stable to hydrolysis
GNE4 amount relative to parent (fold less) in urine, feces and bile combined ([18]; intact rats, over 72 hours): approximately 13 fold
Amount of GNE4 (N-acetylated metabolite of GNE1) detected in feces ([18]; rat, after IV GNE1, up to 24 hours, % of total dose): 9.5%
Compound: CC(=O)N[C@H]1CC[C@H](CNc2ncc(Cl)c(Nc3cc(C4CC4)[nH]n3)n2)CC1 [GNE4, N-((1r,4r)-4-(((5-chloro-4-((5-cyclopropyl-1H-pyrazol-3-yl)amino)pyrimidin-2-yl)amino)methyl)cyclohexyl)acetamide]

Ki [2]: 26 nM
Clearance relative to hepatic blood flow [3]: greater than hepatic blood flow
In vivo rat CLp IV bolus ([3]; rat, IV bolus): 160 mL/min/kg
CLint of P450 metabolism in rat S9 [4]: <10 mL/min/kg
MDCK efflux ratio [5]: 6.2
MDCK A→B Papp [5]: 0.5 ×10⁻⁶ cm/s
Log DpH=7.4 [6]: -0.2
HH CLint [7]: 4.5 mL/min/kg
Kinetic solubility [8]: 136 µM
RH CLint [9]: 10 mL/min/kg
CLint of N-acetylation in rat S9 [10]: 21 mL/min/kg
HLM CLint [11]: 9.1 mL/min/kg
RLM CLint [12]: 8.3 mL/min/kg
fu rat [13]: 0.25
Compound: N[C@H]1CC[C@H](CNc2nccc(Nc3cc(C4CC4)[nH]n3)n2)CC1 [GNE3, N^2-(((1r,4r)-4-aminocyclohexyl)methyl)-N^4-(5-cyclo-propyl-1H-pyrazol-3-yl)pyrimidine-2,4-diamine]

Propranolol (cassette) ER ([17]; cassette with GNE1 0.3 μM and Quinine (10 μM)): 0.45
Propranolol (cassette) ER ([17]; cassette with GNE1 Cin = 0.3 μM): > 0.95
Propranolol (cassette) ER ([17]; cassette with GNE1 Cin = 0.3 μM, listed as Propranolol): >0.95
Propranolol (cassette) ER ([17]; cassette with GNE1 Cin = 8 μM): 0.91
Compound: CC(C)NCC(O)COc1cccc2ccccc12 (stereo not drawn) [propranolol, reference compound]

Reference: PMC5405622 (Drug Metabolism Letters, 2016)
